Results: patent US20250154174A1, “BICYCLIC HETEROCYCLES AS MRGPRX2 ANTAGONISTS” (Incyte Corporation, priority 2023, published 2025)

Key:
MRGPRX2 [1] = target: T1, MRGPRX2 (Homo sapiens, UniProt Q96LB1); experiment: MRGPRX2 FLIPR calcium mobilization assay; assay type: cell-based; parameters: host or cells: CHO-K1; conditions: CHO-K1 cells stably expressing human MRGPRX2; agonist Cortistatin-14 at EC80; Ca2+ release
T1 sequence (Q96LB1 1-330): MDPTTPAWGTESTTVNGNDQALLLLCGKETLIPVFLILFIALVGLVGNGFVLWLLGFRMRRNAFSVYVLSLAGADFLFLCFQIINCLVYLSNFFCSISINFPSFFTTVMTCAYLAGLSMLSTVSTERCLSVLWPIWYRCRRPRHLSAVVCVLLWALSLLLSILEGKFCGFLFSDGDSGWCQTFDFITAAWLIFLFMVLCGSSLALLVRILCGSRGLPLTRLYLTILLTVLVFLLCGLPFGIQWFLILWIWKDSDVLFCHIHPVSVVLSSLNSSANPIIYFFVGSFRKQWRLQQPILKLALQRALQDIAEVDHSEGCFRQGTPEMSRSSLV
Procedure: Chinese hamster ovary (CHO-K1) cells stably expressing human MRGPRX2 were purchased from Genescript (Piscataway, NJ). The cells were maintained in culture medium (Ham's F-12K) containing 10% (v/v) FBS, 200 μg/mL Zeocin, 100 units/mL penicillin G and 100 μg/mL streptomycin (Life Technologies, Carlsbad, CA). For the assay, the cells were harvested and resuspended with culture medium without Zeocin before plating at 8000 cells per well in 20 μL in 384-well black clear bottom cell culture plates (VWR, Radnor, PA). After 24 h culture at 37° C. and 5% CO2, the cells were loaded with 20 μL/well of calcium dye (FLIPR Calcium 6 Assay Kit, Molecular Devices, San Jose, CA) diluted in loading buffer (1× Hank's Balanced Salt Solution (HBSS), 5 mM probenecid, 20 mM 4-(2-hydroxyethyl)-1-piperazineethanesulfonic acid (HEPES), pH 7.4, VWR, Radnor, PA) followed with 45 min. incubation at 37° C. and 40 min. at r.t. in the dark. Cells were then treated with the addition of 10 uL/well test compounds with a range of increasing concentrations diluted in the assay buffer (1×HBSS, 20 mM HEPES, pH 7.4, VWR, Radnor, PA) with FLIPR Penta (Molecular Devices. San Jose, CA) and incubated for 30 min. at r.t. Ca^2+ release was measured with FLIPR Penta with 10 s basal fluorescence measurement, then 12.5 μL of 5× agonist Cortistatin-14 (Tocris, Minneapolis, MN) at final concentration corresponding to the EC80 were added followed with continued fluorescence signal monitoring for an additional 110 s. The base line adjusted (median of first 10s base line) max value of the Relative Fluorescence Unit (RFU) was plotted against compound concentrations. Wells with no compound were served as the positive controls, and wells with high concentration of reference antagonist were used as negative controls. IC50 curves were globally fitted with 3- or 4-parameter Hill equation in a Genedata Screener (Genedata Basel, Switzerland).

MRGPRX2 [2] = target: T1, MRGPRX2; experiment: MRGPRX2 IP1 HTRF assay; assay type: cell-based; parameters: host or cells: CHO-K1; conditions: CHO-K1 cells stably expressing human MRGPRX2; agonist Cortistatin 14 1 μM; IP1 accumulation
Procedure: This assay measures compound inhibition of myo-Inositol 1 phosphate (IP1) accumulation in CHO-K1 cells. Chinese hamster ovary (CHO-K1) cells stably expressing human MRGPRX2 were purchased from GenScript (Piscataway, NJ).
For the HTRF IP1 determination, an IP-One GqKit (Perkin Elmer Cisbio, Waltham, MA), which includes all reagents and buffers in this protocol, was used. The cells were maintained in culture medium (Ham's F-12K) containing 10% (v/v) FBS, and 200 μg/mL Zeocin. For the assay, the cells were harvested and resuspended in culture medium with 2% FBS and without Zeocin, then were passed through a 40 μm filter. Cells were added at 20000 cells in a 5 μL/well to a 384-well white small volume cell culture plate (Greiner VWR, Radnor, PA) which contained 50 nL/well of test compound serially diluted at a selected concentration range in DMSO. 5 μL/well of prepared 2× Stimulation Buffer2 was then added to plates and was incubated at 37° C. with 5% CO2 for 1 h. 5 μL/well of agonist Cortistatin 14 (Bio-TechneR&D Systems, Minneapolis, MN) in 1×Stimulation Buffer 2, for a 1 μM final concentration, was then added to plates and incubated at 37° C. with 5% CO2 for 1 h. 6 μL/well of 1:20 diluted Detection Reagent Mix (d2 and Cryptate) was added to the plates and incubated for 1 h in the dark. Plates were read on the PHERAstar microplate reader (BMG Labtech Cary, NC) to determine the HTRF ratio of the acceptor and donor emission signals. The IP1 concentrations were calculated from a standard curve following the IP-One GQ kit instructions. Wells with DMSO only and wells with high concentration of reference antagonist were used as controls for normalization. Compound IC50 curves were globally fitted with 3- or 4-parameter Hill equation in a Genedata Screener (Genedata Basel, Switzerland).

| SMILES | IC50 (MRGPRX2 [1]) | IC50 (MRGPRX2 [2]) |
| --- | --- | --- |
| FC(F)(F)c1cc(N[C@H]2CCC[C@@H](Nc3nnc4ccccn34)C2)n2nc(Br)cc2n1 [Example 10, (1R,3S)—N^1—([1,2,4]Triazolo[4,3-a]pyridin-3-yl)-N^3-(2-bromo-5-(trifluoromethyl)pyrazolo[1,5-a]pyrimidin-7-yl)cyclohexane-1,3-diamine] | 0.1 to 100 nM | 100 to 1000 nM |
| FC(F)(F)c1cc(N[C@H]2CCC[C@@H](Nc3nccn4nccc34)C2)n2nc(Br)cc2n1 [Example 8, (1S,3R)—N^1-(2-Bromo-5-(trifluoromethyl)pyrazolo[1,5-a]pyrimidin-7-yl)-N^3-(pyrazolo[1,5-a]pyrazin-4-yl)cyclohexane-1,3-diamine] | 0.1 to 100 nM | 100 to 1000 nM |
| FC(F)(F)c1cc(N[C@H]2CCC[C@@H](Nc3nccc4ncccc34)C2)n2nc(C(F)(F)F)cc2n1 [Example 11, (1S,3R)—N^1-(2,5-Bis(trifluoromethyl)pyrazolo[1,5-a]pyrimidin-7-yl)-N^3-(1,6-naphthyridin-5-yl)cyclohexane-1,3-diamine] | 0.1 to 100 nM | 0.1 to 100 nM |
| Cn1cnc2ccnc(N[C@@H]3CCC[C@H](Nc4cccc5nc(C(F)(F)F)cn45)C3)c21 [Example 1, (1R,3S)—N^1-(3-Methyl-3H-imidazo[4,5-c]pyridin-4-yl)-N^3-(2-(trifluoromethyl)imidazo[1,2-a]pyridin-5-yl)cyclohexane-1,3-diamine] | 100 to 1000 nM | 100 to 1000 nM |
| Cc1cc2nc(C(F)(F)F)cc(N[C@H]3CCC[C@@H](Nc4nccc5ncn(C)c45)C3)n2n1 [Example 6, (1R,3S)—N^1-(3-Methyl-3H-imidazo[4,5-c]pyridin-4-yl)-N^3-(2-methyl-5-(trifluoromethyl)pyrazolo[1,5-a]pyrimidin-7-yl)cyclohexane-1,3-diamine] | 100 to 1000 nM |  |
| Cc1cc2nc(C(F)(F)F)cc(N[C@H]3CCC[C@@H](Nc4nccc5ncccc45)C3)n2n1 [Example 7, (1S,3R)—N^1-(2-Methyl-5-(trifluoromethyl)pyrazolo[1,5-a]pyrimidin-7-yl)-N^3-(1,6-naphthyridin-5-yl)cyclohexane-1,3-diamine] | 0.1 to 100 nM | 100 to 1000 nM |
| FC(F)(F)c1cc(N[C@H]2CCC[C@@H](Nc3nccn4cncc34)C2)n2nc(Br)cc2n1 [Example 12, (1S,3R)—N^1-(2-Bromo-5-(trifluoromethyl)pyrazolo[1,5-a]pyrimidin-7-yl)-N^3-(imidazo[1,5-a]pyrazin-8-yl)cyclohexane-1,3-diamine] | 0.1 to 100 nM | 100 to 1000 nM |
| FC(F)(F)c1cc(N[C@H]2CCC[C@@H](Nc3nccc4ncccc34)C2)n2nc(Br)cc2n1 [Example 9, (1S,3R)—N^1-(2-Bromo-5-(trifluoromethyl)pyrazolo[1,5-a]pyrimidin-7-yl)-N^3-(1,6-naphthyridin-5-yl)cyclohexane-1,3-diamine] | 0.1 to 100 nM | 0.1 to 100 nM |
| Cn1cnc2ccnc(N[C@H]3CC[C@@H](Nc4cccc5nc(C(F)(F)F)cn45)CC3)c21 [Example 2, (1s,4s)-N^1-(3-Methyl-3H-imidazo[4,5-c]pyridin-4-yl)-N^4-(2-(trifluoromethyl)imidazo[1,2-a]pyridin-5-yl)cyclohexane-1,4-diamine] | 0.1 to 100 nM | 100 to 1000 nM |
| FC(F)(F)c1cn2c(N[C@H]3CCC[C@@H](Nc4nccn5cncc45)C3)cccc2n1 [Example 4, (1R,3S)—N^1-(Imidazo[1,5-a]pyrazin-8-yl)-N^3-(2-(trifluoromethyl)imidazo[1,2-a]pyridin-5-yl)cyclohexane-1,3-diamine] | 0.1 to 100 nM | 100 to 1000 nM |

Next, values leading:

| IC50 (MRGPRX2 [1]) | IC50 (MRGPRX2 [2]) | SMILES |
| --- | --- | --- |
| 0.1 to 100 nM | 100 to 1000 nM | FC(F)(F)c1cc(N[C@H]2CCC[C@@H](Nc3nccc4nccn34)C2)n2nc(Br)cc2n1 [Example 16, (1S,3R)—N^1-(2-Bromo-5-(trifluoromethyl)pyrazolo[1,5-a]pyrimidin-7-yl)-N^3-(imidazo[1,2-c]pyrimidin-5-yl)cyclohexane-1,3-diamine] |
| 0.1 to 100 nM | 100 to 1000 nM | FC(F)(F)c1cc(N[C@H]2CCC[C@@H](Nc3nccn4cncc34)C2)n2nc(C(F)(F)F)cc2n1 [Example 14, (1S,3R)—N^1-(2,5-Bis(trifluoromethyl)pyrazolo[1,5-a]pyrimidin-7-yl)-N^3-(imidazo[1,5-a]pyrazin-8-yl)cyclohexane-1,3-diamine] |
| 0.1 to 100 nM | 100 to 1000 nM | Cn1cnc2ccnc(N[C@@H]3CCC[C@H](Nc4cc(C(F)(F)F)nc5cc(C(F)(F)F)nn45)C3)c21 [Example 15, (1S,3R)—N^1-(2,5-Bis(trifluoromethyl)pyrazolo[1,5-a]pyrimidin-7-yl)-N^3-(3-methyl-3H-imidazo[4,5-c]pyridin-4-yl)cyclohexane-1,3-diamine] |
| 0.1 to 100 nM | 100 to 1000 nM | Cn1cnc2ccnc(N[C@@H]3CCC[C@H](Nc4cc(C(F)(F)F)nc5cc(Br)nn45)C3)c21 [Example 13, (1S,3R)—N^1-(2-Bromo-5-(trifluoromethyl)pyrazolo[1,5-a]pyrimidin-7-yl)-N^3-(3-methyl-3H-imidazo[4,5-c]pyridin-4-yl)cyclohexane-1,3-diamine] |
| 0.1 to 100 nM | 0.1 to 100 nM | FC(F)(F)c1cc(N[C@H]2CCC[C@@H](Nc3nccc4nccn34)C2)n2nc(C(F)(F)F)cc2n1 [Example 17, (1S,3R)—N^1-(2,5-Bis(trifluoromethyl)pyrazolo[1,5-a]pyrimidin-7-yl)-N^3-(imidazo[1,2-c]pyrimidin-5-yl)cyclohexane-1,3-diamine] |
| 0.1 to 100 nM | 100 to 1000 nM | FC(F)(F)c1cc(N[C@H]2CCC[C@@H](Nc3nnc4ccccn34)C2)n2nc(C(F)(F)F)cc2n1 [Example 18, (1R,3S)—N^1—([1,2,4]Triazolo[4,3-a]pyridin-3-yl)-N^3-(2,5-bis(trifluoromethyl)pyrazolo[1,5-a]pyrimidin-7-yl)cyclohexane-1,3-diamine] |
